Data taken from patent US7851467B2, “Carbamate compounds as 5-HT4 receptor agonists” (Theravance, Inc., priority 2005, dated 2010).

Experiments:
[1] = test system: Caco-2 (colon, adenocarcinoma; human) cell monolayer; assay: Caco-2 permeation assay (in vitro model of oral bioavailability); format: in vitro ADME; details: 100 μM test compound, 37° C., 60 min
Description: Assay 5: In Vitro Model of Oral Bioavailability: Caco-2 Permeation Assay
The Caco-2 permeation assay was performed to model the ability of test compounds to pass through the intestine and get into the blood stream after oral administration. The rate at which test compounds in solution permeate a cell monolayer designed to mimic the tight junction of human small intestinal monolayers was determined.
Caco-2 (colon, adenocarcinoma; human) cells were obtained from ATCC (American Type Culture Collection; Rockville, Md.). For the permeation study, cells were seeded at a density of 63,000 cells/cm^2 on pre-wetted transwells polycarbonate filters (Costar; Cambridge, Mass.). A cell monolayer was formed after 21 days in culture. Following cell culture in the transwell plate, the membrane containing the cell monolayer was detached from the transwell plate and inserted into the diffusion chamber (Costar; Cambridge, Mass.). The diffusion chamber was inserted into the heating block which was equipped with circulating external, thermostatically regulated 37° C. water for temperature control. […]
The permeation study was performed with test compound concentrations at 100 μM and with ^14C-mannitol to monitor the integrity of the monolayer. […] Samples were analyzed by HPLC or liquid scintillation counting for test compound and mannitol concentrations. The permeation coefficient (Kp) in cm/sec was calculated. […]

[2] = Pharmacokinetic study in the rat; format: in vivo; details: male Sprague-Dawley rats
Description: Assay 6: Pharmacokinetic Study in the Rat
Aqueous solution formulations of test compounds were prepared in 0.1% lactic acid at a pH of between about 5 and about 6. Male Sprague-Dawley rats (CD strain, Charles River Laboratories, Wilmington, Mass.) were dosed with test compounds via intravenous administration (IV) at a dose of 2.5 mg/kg or by oral gavage (PO) at a dose of 5 mg/kg. The dosing volume was 1 mL/kg for IV and 2 mL/kg for PO administration. Serial blood samples were collected from animals pre-dose, and at 2 (IV only), 5, 15, and 30 min, and at 1, 2, 4, 8, and 24 hours post-dose. Concentrations of test compounds in blood plasma were determined by liquid chromatography-mass spectrometry analysis (LC-MS/MS) (MDS SCIEX, API 4000, Applied Biosystems, Foster City, Calif.) with a lower limit of quantitation of 1 ng/mL.
Standard pharmacokinetic parameters were assessed by non-compartmental analysis (Model 201 for IV and Model 200 for PO) using WinNonlin (Version 4.0.1, Pharsight, Mountain View, Calif.). The maximum in the curve of test compound concentration in blood plasma vs. time is denoted Cmax. The area under the concentration vs. time curve from the time of dosing to the last measurable concentration (AUC(O-t)) was calculated by the linear trapezoidal rule. Oral bioavailability (F(%)), i.e. the dose-normalized ratio of AUC(O-t) for PO administration to AUC(O-t) for IV administration, can be calculated as: F(%)=AUCPO/AUCIV×DoseIV/DosePO×100%
The compounds of the invention that were tested in this assay had Cmax values between about 0.15 to about 0.35 μg/mL and AUC(0−t) values between about 0.5 to about 1.1 μg·hr/mL.

[3] = blood plasma, dosing IV 2.5 mg/kg or PO 5 mg/kg

Structure (SMILES): CC(C)n1c(=O)n(C(=O)N[C@H]2C[C@H]3CC[C@@H](C2)N3CCCOC(=O)N2CCN(C(=O)C3CCCO3)CC2)c2ccccc21 (stereo partly drawn) [Example 1, 4-(tetrahydrofuran-2-carbonyl)piperazine-1-carboxylic acid 3-{(1S,3R,5R)-3-[(3-isopropyl-2-oxo-2,3-dihydrobenzoimidazole-1-carbonyl)amino]-8-aza-bicyclo[3.2.1]oct-8-yl}propyl ester]
- Kp value (permeation coefficient) [1]: 60 ×10⁻⁶ cm/s
- AUC(0-t) [2, 3]: 970 ng·h/mL
- Cmax [2, 3]: 320 ng/mL
- bioavailability ([2]; plasma, PO 5 mg/kg vs IV 2.5 mg/kg, dose-normalized AUC ratio, read-out: oral bioavailability F(%)): 55%
